Source: patent US9394544B2, “Ameliorating oxidative stress in neurodegenerative disease via Nox1 targeting” (University of Central Florida Research Foundation, Inc., priority 2013, dated 2016)

Columns and labels:
[1] = system: differentiated human dopaminergic cells (ReNcell VM); test: α-Synuclein and Nox1 levels in differentiated ReNcell VM human dopaminergic neurons exposed to PQ; assay type: cell-based
From the text: For the in vitro experiments on human dopaminergic neurons, human mesencephalic neuronal progenitor cell line available from Millipore (catalog number SCC008) was used. The specialty of these cells is that they are isolated from fetal human ventral mesencephalic region and subsequently immortalized by introduction of v-myc. The cells can readily differentiate into dopaminergic neurons upon withdrawal of growth factors (Millipore). The culture method was followed as indicated by the company with little modifications. Briefly, the cells were allowed to grow on laminin-coated (20 μg/ml) dishes in DMEM/F12-containing medium with B27 supplement, glutamax, heparin (10 U/ml), and gentamicin (50 μg/ml). This medium is called maintenance medium. Cell division was allowed by addition of the two growth factors in the medium viz., basic fibroblast growth factor (bFGF) and epidermal growth factor (EGF), both at a concentration of 20 ng/ml. […]
(§1) After each respective treatment, cells were fixed in 4% paraformaldehyde (PFA) for 20 min and permeabilized with 0.1% Triton X-100 in PBS for 10 min. […] For quantification of Flag^+ and α-synuclein^+ cells, >30 different fields per coverslip were analyzed on a Nikon inverted fluorescent microscope under a 20× and 40× magnification.

[2] = system: rat SN; test: Western blot / dot blot / protein carbonyl immunoblot of SN lysates, PQ rat model; assay type: in vivo
Method: The experiments were performed on rats, in accordance with the National Institutes for Health Guide for the Care and Use of Laboratory Animals. All procedures were approved by the local Animal Care and Use Committee. Male Wistar rats (8-10 weeks; Charles River) were maintained in a temperature/humidity-controlled environment under a 12 h light/dark cycle with ad libitum access to food and water. As depicted in FIG. 13A, each animal received four intraperitoneal injections, separated by 1 d, of either vehicle (saline) or PQ (10 mg/kg body weight; b.w.), according to a previously published dose (Manning-Bog et al., 2002; Harraz et al., 2008; Cristovao et al., 2009). All animals were weighed at day 1 and 12. In the studies using the paradigm depicted in FIG. 13A, 4 weeks before starting PQ intraperitoneal injection, animals were stereotaxically injected with various viral constructs at the right SN using the following coordinates: mediolateral, +2.0; anteroposterior, −5.3; dorsoventral, −6.8. Animals were organized into four groups: vector+vehicle: stereotaxically injected with adeno-associated virus (AAV) particles containing a green fluorescent protein (GFP) vector (vector) and then intraperitoneally injected with saline (vehicle) (n=10); vector+PQ: stereotaxically injected with vector and then intraperitoneally injected with PQ (n=10); shNox1+PQ: stereotaxically injected with AAV particles harboring Nox1 shRNA and then intraperitoneally injected with PQ (n=10); shNox1+vehicle: stereotaxically injected with Nox1 shRNA and then intraperitoneally injected with vehicle (n=8). AAV containing GFP vector was used as a negative control. Five days after the last PQ intraperitoneal injection, animals were killed. For Western blot analysis, brains were collected and total protein lysates from SN were prepared. For immunohistochemical analysis, animals were intracardially perfused before collecting the brains.
For Western blot, brain tissues were lysed on ice in radioimmunoprecipitation assay buffer containing 50 mMTris/HCl, pH 8.0, 150 mM NaCl, 2 mM sodium orthovanadate, 1% Nonidet-P40 (NP-40), 0.5% sodium deoxycholate, and 0.1% SDS, containing 1% of a protease inhibitor mixture (AEBSF, pepstatinA, E-64, bestatin, leupeptin, and aprotinin). The soluble fraction was obtained and equal amounts of cell lysate protein were loaded in each lane of a 12% SDS-PAGE or 4/10% to 20% polyacrylamide gel. After electrophoresis and transfer onto a polyvinylidene difluoride (PVDF) membrane, specific protein bands were detected using appropriate primary antibodies (rabbit anti-Nox1, rabbit anti-α-synuclein, mouse anti-Ubiquitin, mouse anti-tyrosine hydroxylase (TH), and mouse anti-β-actin) and secondary antibodies conjugated to alkaline phosphatase or […] peroxidase (anti-rabbit or anti-mouse) followed by Enhanced Chemifluorescence (ECF) detection or Enhanced Chemiluminescence (ECL).
For dot blot, brain tissues were homogenized in a buffer containing 0.32 M sucrose, 1 mM NaHCO3, 1 mM MgCl2, 0.5 mM CaCl2, and 1% of a protease inhibitor mixture (AEBSF, pepstatinA, E-64, bestatin, leupeptin, and aprotinin). The soluble fraction was obtained by centrifugation at 1000×g and 5 μl of each sample, containing the same amount of protein, was spotted in a PVDF membrane. Membrane was air dried for 4 h and blocked overnight at 4° C. in 5% nonfat dry milk TBST (10 mM Tris-HCl, pH 7.8, 100 mM NaCl, 0.05% Tween 20) solution. Protein spots were detected using the primary antibody, rabbit anti-A11 oligomer (0.5 μg/ml) from Invitrogen, and secondary antibody conjugated to […] peroxidase (anti-rabbit) followed by ECL detection.
The levels of protein carbonyl were measured in protein extracts from the SN tissues, using the OxiSelect Protein Carbonyl Immunoblot Kit (Cell Biolabs), according to the manufacturer's instructions, with small modifications. […]

[3] = system: Flag-tagged wild-type (WT) α-synuclein; test: Aggregation of overexpressed flag-tagged WT α-synuclein in N27 cells exposed to PQ; assay type: cell-based, rat
Method: Human α-synuclein was cloned into the p3xFLAG-myc-CMV-23 expression vector (Sigma) for N- and C-terminal tagging with FLAG and Myc, respectively. For transient overexpression of tagged α-synuclein, N27 cells were plated onto 24-well plates with coverslips at 0.5×10^5 cells per well 1 d before transfection. The next day, cells were transiently transfected with FLAG-WTsyn-myc. Briefly, 1 μg of plasmid DNA was mixed with 6 μl of Lipofectamine 2000 (Invitrogen) in 100 μl of Opti-MEM for 20 min before addition in the culture. After 6 h of incubation, the culture medium was changed and 100 μl of Nox1 shRNA/LVX viral particle was added to each well. Cells were maintained for an additional 36 h before treatment with 800 μM or 1000 μM PQ for 8 and 24 h.
as §1, with “min. Blocking was performed by incubation with 20% goat or donkey serum in PBS containing 0.1% Tween 20 for 90 min at room temperature.” for “min.”

## C[n+]1ccc(-c2cc[n+](C)cc2)cc1 [PQ, paraquat]
[1]; 8 h PQ
  Nox1 level (immunocytochemistry, Western blot): highly elevated
[1]; PQ 800 or 1000 μM, 8 and 24 h
  α-synuclein level: increases over time
[2]; ipsilateral SN
  increase in protein carbonyl levels after PQ exposure: 95%
  increase in ubiquitin protein levels, vector+PQ vs vector+vehicle: 43%
[2]; ipsilateral SN, Western blot
  increase in α-synuclein protein levels, vector+PQ vs vector+vehicle: 54%
[2]; ipsilateral SN, dot blot
  increase in A11-positive oligomers, vector+PQ vs vector+vehicle: 68%
[2]; ipsilateral SN, vector+PQ group, or Nox1 knocked down before PQ
  TH protein levels compared with vector+vehicle: 65%
[2]; rats, PQ 10 mg/kg i.p. x4
  Nox1 protein level in the SN, higher than vehicle group: 58%
[2]; rats, PQ 10 mg/kg i.p. x4, vs vehicle
  increase in α-synuclein protein levels in the SN (Western blot): 50%
[2]; vector+PQ group, ipsilateral SN
  Nox1 protein, higher than vector+vehicle: 70%
[3]
  increase of flag-tagged WT α-synuclein aggregation vs control cells: 2.5 fold
